Type in all cases: cell-based
One test deals with ITK & JAK (IFNγ protein). In words: Pre-clinical human whole blood αCD3 + IL-15/IFNγ (18 hr). The settings on record: Homo sapiens, 18 h; read-out: Human Whole Blood EC50, αCD3 + IL-15/IFNγ (18 hr).
The test system of the next test is JAK3 (pSTAT5, lymph). The experiment in a line: Pre-clinical human whole blood IL-2/pSTAT5 (20 min), lymphocytes. The settings on record: Homo sapiens, Lymphocyte, 20 min; read-out: Human Whole Blood EC50, IL-2/pSTAT5 (20 min).
The test system of a further test is ITK (IL2 mRNA). The experiment in a line: Pre-clinical human whole blood αCD3/28/IL-2 mRNA (2 hr). The settings on record: Homo sapiens, 2 h; read-out: Human Whole Blood EC50, αCD3/28/IL-2 mRNA (2 hr).
For test [1], the system named is IL15 stimulated IFNγ protein. In words: Pre-clinical human whole blood IL-15/IFNγ (5 hr). Conditions: Homo sapiens, 5 h, read-out: Human Whole Blood EC50, IL-15/IFNγ (5 hr).
A further test concerns the target T1, JAK2 (Homo sapiens, UniProt O60674).
T1 construct: endogenous in cells
In words: Cell IC50 JAK2.

Another test has as its target T2, ITK (Homo sapiens, UniProt Q08881).
T2 construct: (Jurkat/pPLCγ1); endogenous in cells; host or cells: Jurkat
T2 sequence (Q08881 1-620): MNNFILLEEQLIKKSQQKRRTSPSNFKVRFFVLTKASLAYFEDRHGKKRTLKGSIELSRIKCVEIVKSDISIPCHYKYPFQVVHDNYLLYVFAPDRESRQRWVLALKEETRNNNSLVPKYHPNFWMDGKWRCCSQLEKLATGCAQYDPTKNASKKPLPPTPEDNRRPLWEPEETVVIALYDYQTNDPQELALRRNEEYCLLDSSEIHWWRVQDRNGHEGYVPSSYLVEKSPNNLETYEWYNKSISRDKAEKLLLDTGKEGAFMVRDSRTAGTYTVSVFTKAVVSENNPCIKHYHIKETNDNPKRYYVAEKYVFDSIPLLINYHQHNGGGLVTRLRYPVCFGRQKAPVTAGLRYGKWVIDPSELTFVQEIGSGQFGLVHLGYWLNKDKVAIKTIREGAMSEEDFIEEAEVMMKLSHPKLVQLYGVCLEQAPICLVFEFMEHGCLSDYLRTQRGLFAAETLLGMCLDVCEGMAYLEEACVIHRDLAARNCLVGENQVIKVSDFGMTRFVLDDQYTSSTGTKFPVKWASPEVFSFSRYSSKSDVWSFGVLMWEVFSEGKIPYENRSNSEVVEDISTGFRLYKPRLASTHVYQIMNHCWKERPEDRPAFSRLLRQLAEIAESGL
In words: Cell IC50 ITK (Jurkat/pPLCγ1).

T1 sequence (O60674 whole entry): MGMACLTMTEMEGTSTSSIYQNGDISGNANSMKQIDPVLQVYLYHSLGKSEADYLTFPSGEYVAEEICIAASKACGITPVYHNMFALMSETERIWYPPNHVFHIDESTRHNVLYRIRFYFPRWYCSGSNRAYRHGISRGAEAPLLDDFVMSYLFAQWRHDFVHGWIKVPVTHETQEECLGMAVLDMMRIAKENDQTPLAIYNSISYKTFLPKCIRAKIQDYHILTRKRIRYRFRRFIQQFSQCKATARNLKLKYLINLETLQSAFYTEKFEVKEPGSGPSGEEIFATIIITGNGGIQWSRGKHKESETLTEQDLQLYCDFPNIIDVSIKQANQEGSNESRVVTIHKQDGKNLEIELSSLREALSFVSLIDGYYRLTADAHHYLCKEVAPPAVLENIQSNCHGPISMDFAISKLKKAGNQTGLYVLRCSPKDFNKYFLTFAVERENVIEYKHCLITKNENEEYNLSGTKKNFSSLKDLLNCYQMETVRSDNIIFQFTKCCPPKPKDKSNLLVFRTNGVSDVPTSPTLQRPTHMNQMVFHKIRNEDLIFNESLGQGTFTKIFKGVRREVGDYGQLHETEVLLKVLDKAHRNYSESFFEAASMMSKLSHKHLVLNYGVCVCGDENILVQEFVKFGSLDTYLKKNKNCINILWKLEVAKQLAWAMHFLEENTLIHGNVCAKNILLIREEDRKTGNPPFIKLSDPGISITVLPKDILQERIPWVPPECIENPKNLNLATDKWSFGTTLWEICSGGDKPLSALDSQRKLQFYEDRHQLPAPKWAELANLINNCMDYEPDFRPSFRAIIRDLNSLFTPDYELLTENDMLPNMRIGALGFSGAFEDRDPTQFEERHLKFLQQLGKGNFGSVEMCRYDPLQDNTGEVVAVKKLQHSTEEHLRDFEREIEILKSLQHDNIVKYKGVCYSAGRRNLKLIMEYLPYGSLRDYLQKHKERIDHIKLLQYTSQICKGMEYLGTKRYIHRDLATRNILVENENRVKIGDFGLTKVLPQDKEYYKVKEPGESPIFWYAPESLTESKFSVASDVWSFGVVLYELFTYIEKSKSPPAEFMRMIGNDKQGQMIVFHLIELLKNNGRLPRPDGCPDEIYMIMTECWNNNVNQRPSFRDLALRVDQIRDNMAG

With `C=CC(=O)N1C[C@H](Nc2ncnc3[nH]ccc23)CC[C@@H]1C` [Ritlecitinib, reference compound], the EC50 was determined as 0.033 µM in the test on ITK & JAK (IFNγ protein); […] in the test with JAK3 (pSTAT5, lymph); 0.74 µM in the test on ITK (IL2 mRNA); 0.052 µM in test [1]. Moreover, the “Cell IC50, JAK2” value on JAK2 is reported as “Inactive”.
As to `C[C@@H]1CCN(C(=O)CC#N)C[C@@H]1N(C)c1ncnc2[nH]ccc12` [Tofacitinib, reference compound], the “Cell IC50, ITK” value on ITK is “Inactive”.

Values taken from US20260191863A1, “PYRROLOPYRIMIDINE COMPOSITIONS FOR TREATMENT OF ITK MEDIATED CONDITIONS” (ACLARIS THERAPEUTICS, INC., priority 2022, published 2026).
